Reference: ChEMBL document CHEMBL2331207, “A novel fluorogenic substrate for dinuclear Zn(II)-containing metallo-β-lactamases” (Bioorg Med Chem Lett, 2013)

How the values were obtained:
[1] = Activity at metallo-beta-lactamase L1 (unknown origin) by UV-vis spectrophotometry analysis
[2] = Activity at beta-lactamase type 2 (unknown origin) by UV-vis spectrophotometry analysis
[3] = Activity at metallo-beta-lactamase L1 (unknown origin) by fluorescence spectrum analysis
[4] = Activity at beta-lactamase type 2 (unknown origin) by fluorescence spectrum analysis

Km [1]: 13 µM | kcat [1]: 5 s⁻¹ | Km [2]: 18 µM | kcat [2]: 12 s⁻¹ | Km [3]: 18 µM | kcat [3]: 5 s⁻¹ | Km [4]: 11 µM | kcat [4]: 17 s⁻¹
SMILES: O=C(O)C1=C(CSc2ccc(NC(=O)c3cc4ccccc4oc3=O)cc2)CS[C@@H]2[C@H](NC(=O)c3cc4ccccc4oc3=O)C(=O)N12
